Reference: patent publication US20010000177A1, “Novel class of thiomorpholino substituted thiazoles” (priority 1999, published 2001)
Values after ≈ are worked out from the molar mass of the structure shown. Marks after values point to notes of the source that are not given here.

Key:
Format in all cases: cell-based
[1] = tested on: Candida and Cryptococcus strains (organism not given); assay: Broth microdilution antifungal activity, Table II second MIC/MCC column pair; details: second column pair of Table II; for MIC = Minimum inhibitory concentration (50% Inhibition): 48 hrs, 35° C., YNB broth pH 7.0; for MCC = Minimum cytolytic concentration: subculture on SDA plate
Protocol: (§1) Organisms: Three strains of Candida (Candida parpsilosis, Candida tropicalis, Candida albicans-ATCC 36082) as well as Cryptococcus neoformans were used for the initial testing. Active compounds were then tested against fluconazole resistant Candida albicans, Candida krusei, Torulopsis glabrata, and Cryptococcus neoformans along with Sporothrix shenkii and Aspergillus flavus in the secondary round of testing. All clinical strains used in this study were blood culture isolates from the Clinical Microbiology Laboratory of Harbor-UCLA Medical Center, Torrance, Calif. The organisms were maintained on Sabourahd Dextrose Agar slants at 4° C. For experimentation, singlet suspensions of each organism were prepared by growing the yeast overnight at 27° C. on a rotating drum in yeast-nitrogen base broth (YNB) with amino acids (Difco, Detroit, Mich.), pH 7.0 with 0.05M morpholinepropanesulfonic acid (MOPS). The suspension was then centrifuged and washed twice with 0.85% NaCl. This was followed by sonication of the washed cell suspension for 4s (Branson Sonifier, model 350, Danbury, Conn.). The singlet blastospores were counted in a hemocytometer and adjusted to the desired concentration in 0.85% NaCl.
(§2) Antifungal Activity: The antifungal activity of the compounds and Fluconazole against the Candida and Cryptococcus strains were determined using a modification of a broth microdilution technique. Test compounds were diluted in DMSO to a 1.0 mg/ml ratio then diluted to 64 μg/ml in YNB broth, pH 7.0 with MOPS (Fluconazole was used as the control). This was to provide a working solution of each compound. Using a 96-well plate, wells 1 and 3 through 12 were prepared with YNB broth, […] dilutions of the compound solution were made in wells 2 through 11 (concentration ranges were 64 to 0.125 μg/ml). Well one served as a sterility control and blank for the spectrophotometric assays. Well twelve served as a growth control. The microtiter plates were inoculated with 10 ul in each of well 2 through 11 (final inoculum size was 10^4 organisms/ml). Inoculated plates were incubated for 48 hrs., at 35° C. The MIC values were determined spectrophotometrically by measuring the absorbance at 420 nm (Automatic Microplate Reader, DuPont Instruments, Wilmington, Del.) after agitation of the plates for 2 min with a vortex-mixer (Vorte-Genie 2 Mixer, Scientific Industries, Inc., Bolemia, N.Y.). […] With the turbidity assay this was defined as the lowest drug concentration at which turbidity in the well was <50% of the control (IC50) Minimal Cytolytic Concentrations (MCC) were determined by subculturing all wells from the 96-well plate onto a Sabourahd Dextrose Agar (SDA) plate and incubated for 1 to 2 days at 35° C. and the viability was checked.

[2] = tested on: Candida and Cryptococcus strains (organism not given); assay: Broth microdilution antifungal activity, Table II first MIC/MCC column pair; details: for MIC = Minimum inhibitory concentration (50% Inhibition) / MCC = Minimum cytolytic concentration: first column pair of Table II; for MIC = Minimum inhibitory concentration (50% Inhibition): YNB broth pH 7.0; for MCC = Minimum cytolytic concentration: subculture on SDA plate
Protocol: as §1, with “Active compounds were then tested against fluconazole resistant Candida albicans, Candida krusei, Torulopsis glabrata, and Cryptococcus neoformans along with Sporothrix shenkii and Aspergillus flavus in the secondary round of testing.” left out
as §2

[3] = tested on: Candida and Cryptococcus strains (organism not given); assay: Broth microdilution antifungal activity, Table II fourth MIC/MCC column pair; details: for MIC = Minimum inhibitory concentration (50% Inhibition) / MCC = Minimum cytolytic concentration: fourth column pair of Table II; for MIC = Minimum inhibitory concentration (50% Inhibition): YNB broth pH 7.0; for MCC = Minimum cytolytic concentration: subculture on SDA plate
Protocol: as §1, with “Active compounds were then tested against fluconazole resistant Candida albicans, Candida krusei, Torulopsis glabrata, and Cryptococcus neoformans along with Sporothrix shenkii and Aspergillus flavus in the secondary round of testing.” left out
as §2

[4] = tested on: Candida and Cryptococcus strains (organism not given); assay: Broth microdilution antifungal activity, Table II third MIC/MCC column pair; details: for MIC = Minimum inhibitory concentration (50% Inhibition): 48 hrs, 35° C., YNB broth pH 7.0; for MCC = Minimum cytolytic concentration: subculture on SDA plate
Protocol: as §1, §2

SMILES	MIC = Minimum inhibitory concentration (50% Inhibition) [1]	MIC = Minimum inhibitory concentration (50% Inhibition) ([2]; 48 hrs, 35° C.)	MIC = Minimum inhibitory concentration (50% Inhibition) ([3]; 48 hrs, 35° C.)	MIC = Minimum inhibitory concentration (50% Inhibition) [4]	MIC ([2]; Candida, 48 h, pH 7, first column pair of Table II, 48 hrs, 35° C., YNB broth pH 7.0, read-out: MIC = Minimum inhibitory concentration (50% Inhibition))	MIC ([3]; Candida, 48 h, pH 7, fourth column pair of Table II, 48 hrs, 35° C., YNB broth pH 7.0, read-out: MIC = Minimum inhibitory concentration (50% Inhibition))	MCC = Minimum cytolytic concentration [4]	MCC = Minimum cytolytic concentration [1]	MCC = Minimum cytolytic concentration [2]	MCC = Minimum cytolytic concentration [3]
C[C@@H]1[C@H](O)[C@@H](C)/C=C/C=C/C=C/C=C/C=C/C=C/C=C/[C@H](O[C@@H]2O[C@H](C)[C@@H](O)[C@H](N)[C@@H]2O)C[C@@H]2O[C@](O)(C[C@@H](O)C[C@@H](O)[C@H](O)CC[C@@H](O)C[C@@H](O)CC(=O)O[C@H]1C)C[C@H](O)[C@H]2C(=O)O [Amp-B, amphotericin B, reference compound]	0.25 µg/mL (≈ 0.271 µM)	0.25 µg/mL (≈ 0.271 µM)	<0.03 µg/mL							
C=CCN(C)Cc1ccc(-c2csc(-c3ccc(F)cc3)n2)cc1 [Example 1, 2-(4′-fluorophenyl)-4-[4″-(N-methyl-N-allylaminomethyl)phenyl]thiazole]	4 µg/mL (≈ 11.8 µM)	4^c μg/ml	4 µg/mL (≈ 11.8 µM)	4 µg/mL (≈ 11.8 µM)			16 µg/mL	16 µg/mL	16 µg/mL	16 µg/mL
CN(C)Cc1ccc(-c2csc(-c3cccc([N+](=O)[O-])c3)n2)cc1 [Example 1aa, 2-(3′-nitrophenyl)-4-[4″-(dimethylaminomethyl)phenyl]-thiazole]	4 µg/mL (≈ 11.8 µM)	4 µg/mL (≈ 11.8 µM)	4 µg/mL (≈ 11.8 µM)	4 µg/mL (≈ 11.8 µM)			4 µg/mL	4 µg/mL	4 µg/mL	4 µg/mL
CN(CCO)Cc1ccc(-c2csc(-c3ccc(Cl)cc3)n2)cc1 [Example 1ee, 2-(4′-chlorophenyl)-4-[4″-(N-methyl-N-(2-hydroxyethyl)aminomethyl)-phenyl]thiazole]	2 µg/mL (≈ 5.57 µM)	4 µg/mL (≈ 11.1 µM)	2 µg/mL (≈ 5.57 µM)	4 µg/mL (≈ 11.1 µM)			8 µg/mL	16 µg/mL	16 µg/mL	16 µg/mL
C=CCN(C)Cc1ccc(-c2csc(-c3ccc(Cl)cc3)n2)cc1 [Example 1g, 2-(4′-chlorophenyl)-4-[4″-(N-methyl-N-allylaminomethyl)phenyl]thiazole]	4 µg/mL (≈ 11.3 µM)	2 µg/mL (≈ 5.64 µM)	2 µg/mL (≈ 5.64 µM)	2 µg/mL (≈ 5.64 µM)			8 µg/mL	8 µg/mL	8 µg/mL	8 µg/mL

Continued, in another order:

MIC = Minimum inhibitory concentration (50% Inhibition) [1]	MIC = Minimum inhibitory concentration (50% Inhibition) ([2]; 48 hrs, 35° C.)	MIC = Minimum inhibitory concentration (50% Inhibition) ([3]; 48 hrs, 35° C.)	MIC = Minimum inhibitory concentration (50% Inhibition) [4]	MIC ([2]; Candida, 48 h, pH 7, first column pair of Table II, 48 hrs, 35° C., YNB broth pH 7.0, read-out: MIC = Minimum inhibitory concentration (50% Inhibition))	MIC ([3]; Candida, 48 h, pH 7, fourth column pair of Table II, 48 hrs, 35° C., YNB broth pH 7.0, read-out: MIC = Minimum inhibitory concentration (50% Inhibition))	SMILES	MCC = Minimum cytolytic concentration [4]	MCC = Minimum cytolytic concentration [1]	MCC = Minimum cytolytic concentration [2]	MCC = Minimum cytolytic concentration [3]
0.25 µg/mL (≈ 0.684 µM)	0.5^c μg/ml	0.5 µg/mL (≈ 1.37 µM)	0.125 µg/mL (≈ 0.342 µM)			C=CCN(C)Cc1ccc(-c2csc(-c3ccc([N+](=O)[O-])cc3)n2)cc1 [Example 1h, 2-(4′-nitrophenyl)-4-[4″-(N-methyl-N-allylaminomethyl)phenyl]thiazole]	0.5 µg/mL	1 µg/mL	2 µg/mL	2 µg/mL
4 µg/mL (≈ 10.8 µM)	8 µg/mL (≈ 21.5 µM)	8 µg/mL (≈ 21.5 µM)	4 µg/mL (≈ 10.8 µM)			CN(C)CCNCc1ccc(-c2csc(-c3ccc(Cl)cc3)n2)cc1 [Example 1jj, 2-(4′-chlorophenyl)-4-[4″-(N-(2-dimethylaminoethyl)aminomethyl)phenyl]thiazole]	4 µg/mL	4 µg/mL	8 µg/mL	8 µg/mL
0.25 µg/mL (≈ 0.684 µM)	0.5 µg/mL (≈ 1.37 µM)	0.25 µg/mL (≈ 0.684 µM)	0.25 µg/mL (≈ 0.684 µM)			C=CCN(C)Cc1ccc(-c2csc(-c3cccc([N+](=O)[O-])c3)n2)cc1 [Example 1k, 2-(3′-nitrophenyl)-4-[4″-(N-methyl-N-allylaminomethyl)phenyl]thiazole]	0.25 µg/mL	0.5 µg/mL	1 µg/mL	0.5 µg/mL
0.25 µg/mL (≈ 0.632 µM)	1 µg/mL (≈ 2.53 µM)	0.5 µg/mL (≈ 1.26 µM)	1 µg/mL (≈ 2.53 µM)			C=CCN(C)Cc1ccc(-c2csc(-c3ccc(OC)c([N+](=O)[O-])c3)n2)cc1 [Example 1kk, 2-(4′-methoxy-3′-nitrophenyl)-4-[4″-(N-methyl-N-allylamino-methyl)phenyl]thiazole]	2 µg/mL	1 µg/mL	2 µg/mL	2 µg/mL
2 µg/mL (≈ 5.01 µM)	8 µg/mL (≈ 20 µM)	2 µg/mL (≈ 5.01 µM)	4 µg/mL (≈ 10 µM)			COc1ccc(-c2nc(-c3ccc(CN(C)CCO)cc3)cs2)cc1[N+](=O)[O-] [Example 1ll, 2-(4′-methoxy-3′-nitrophenyl)-4-[4″-(N-methyl-N-(2-hydroxy-ethyl)amino-methyl)phenyl]thiazole]	4 µg/mL	2 µg/mL	8 µg/mL	8 µg/mL
				32 µg/mL (≈ 111 µM)	4 µg/mL (≈ 13.9 µM)	CN(C/C=C/c1ccccc1)Cc1cccc2ccccc12 [Naftifine, reference compound]				
